Values quoted from earlier work, collected in patent US20220001038A1, “CONJUGATES FOR DETECTION OF AXILLARY LYMPH NODE METASTASES” (H. LEE MOFFITT CANCER CENTER AND RESEARCH INSTITUTE, INC., priority 2017, published 2022).

System: hCA IX and XII

[N-]=[N+]=NCCCCCCOc1ccc(-c2nn(-c3ccccc3)cc2-c2nc3ccccc3[nH]2)cc1 [compound 6]
affinity/selectivity for CAIX and CAXII (in words): inhibitor with hCA IX and XII selectivity
